The values below come from patent US20260272936A1, “TREATMENT OF CANCER WITH A PARG INHIBITOR” (858 Therapeutics, Inc., priority 2023, published 2026).

The target in the assay is T1, human recombinant PARG (Homo sapiens, UniProt Q86W56).
T1 construct: Human PARG (amino acids 389-976; Uniprot ID Q86W56-1); 6xHis (N, cleaved yes); TEV cleavage site (N, cleaved yes); made in house; host or cells: PARG: E. coli BL21 (DE3); PARP1 substrate: High Five insect cells (baculovirus)
The assay can be described thus: HTRF assay of PARG enzymatic activity with PARylated-PARP1 substrate. The class given is biochemical. The note with it: geometric mean, n=14.

Each structure is given as a SMILES string.

T1 sequence (Q86W56 389-976): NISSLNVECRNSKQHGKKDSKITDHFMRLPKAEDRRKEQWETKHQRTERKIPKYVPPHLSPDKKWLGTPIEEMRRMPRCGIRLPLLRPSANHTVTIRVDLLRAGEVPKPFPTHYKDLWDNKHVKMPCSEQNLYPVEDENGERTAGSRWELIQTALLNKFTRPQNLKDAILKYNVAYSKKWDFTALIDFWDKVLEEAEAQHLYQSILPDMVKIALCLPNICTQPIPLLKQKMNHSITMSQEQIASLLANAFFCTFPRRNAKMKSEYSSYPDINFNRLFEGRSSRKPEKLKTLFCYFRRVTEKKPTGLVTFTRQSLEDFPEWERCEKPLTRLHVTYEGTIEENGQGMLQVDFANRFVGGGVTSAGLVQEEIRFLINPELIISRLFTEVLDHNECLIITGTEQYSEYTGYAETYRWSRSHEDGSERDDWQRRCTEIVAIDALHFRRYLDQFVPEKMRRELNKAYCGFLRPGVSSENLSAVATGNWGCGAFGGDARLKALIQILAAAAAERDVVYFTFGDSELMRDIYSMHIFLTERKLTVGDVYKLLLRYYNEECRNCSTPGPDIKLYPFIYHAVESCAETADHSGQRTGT

In the case of `[2H]C([2H])(c1cnn(C)c1)N1C(=O)c2cc(S(=O)(=O)NC3(C)CC3)ccc2N2C1=NC[C@H]2C` [Compound 1, (R)-1-methyl-4-((1-methyl-1H-pyrazol-4-yl)methyl-d2)-N-(1-methylcyclopropyl)-5-oxo-1,2,4,5-tetrahydroimidazo[1,2-a]quinazoline-7-sulfonamide], the half-inhibitory concentration (IC50) (commonly the concentration needed to halve the response being measured) amounted to 85 nM.
